Laboratory results taken from PMC8819291, “Adaptively evolved human oral actinomyces‐sourced defensins show therapeutic potential” (EMBO Molecular Medicine, 2021).
Where two headings read alike, the source gives them in different places. Where a SMILES comes first, the peptide text is derived from it. Bridges are numbered along the chain shown (N, C = ends).

Legend:
[1] = system: SP R6; assay: RNA sequencing of the stimulon; assay type: cell-based, Streptococcus pneumoniae; conditions: sub‐lethal concentration, 10 min
Description: Cells were harvested and washed with PBS buffer (pH 7.3) following further incubation for 10 min. Total RNA was isolated using the Bacteria Total RNA Isolation Kit (Sangon, China) according to the manufacturer’s instruction. RNA quality was assessed by NanoDrop and Agilent 2100 Bioanalyzer (Table EV6). After enrichment and fragment, mRNA was reverse transcribed into single‐strand DNA and then synthesized into double‐strand DNA. Following end‐filling, 5′‐phosphorylation, bubble adaptor ligation, and PCR amplification, a single‐strand circled DNA library was established for sequencing in BGISEQ‐500 sequencer (BGI, China) with a combinatorial probe‐anchor synthesis (cPAS) strategy.

[2] = Circular dichroism spectroscopy with UMP; assay type: binding; conditions: 50 mM NH4OAc, room temperature
Description: The spectra were measured at room temperature from 300 to 200 nm by using a quartz cell of 1.0 mm thickness. Data were collected at 1‐nm intervals with a scan rate of 2 nm/s.

[3] = Stability in H2O (residual activity by inhibition-zone assay); assay type: physicochemical; conditions: 48‐h incubation in H2O at 37°C
[4] = biological target: Kv1.4 (Homo sapiens, UniProt P22459); conditions: 100 μM AMSIN
Description: (§1) For the expression of Nav1.5, Kv1.4, Kv1.5, Kv2.1, Kv4.3, and hERG in Xenopus oocytes, the linearized plasmids were transcribed using the T7 or SP6 mMESSAGE‐mMACHINE transcription kit (Ambion). The harvesting of stage V–VI oocytes from an anesthetized female Xenopus laevis frog was previously described (Zhu et al, [2020]). Oocytes were injected with 50 nl of cRNA at a concentration of 1 ng/nl using a micro‐injector (Drummond Scientific, USA). The oocytes were incubated in a solution containing (in mM): NaCl, 96; KCl, 2; CaCl2, 1.8; MgCl2, 2 and HEPES, 5 (pH 7.4), supplemented with 50 mg/l gentamycin sulfate. Two‐electrode voltage‐clamp recordings were performed at room temperature (18–22°C) using a Geneclamp 500 amplifier (Axon Instruments, USA) controlled by a pClamp data acquisition system (Axon Instruments, USA). Whole‐cell currents from oocytes were recorded 1–4 days after injection. Bath solution composition was (in mM): NaCl, 96; KCl, 2; CaCl2, 1.8; MgCl2, 2 and HEPES, 5 (pH 7.4). Voltage and current electrodes were filled with 3 M KCl. Resistances of both electrodes were kept between 0.7 and 1.5 M Ω. Elicited currents were sampled at 1 kHz and filtered at 0.5 kHz (for potassium currents) or sampled at 20 kHz and filtered at 2 kHz (for sodium currents) using a four‐pole low‐pass Bessel filter. […] Current traces of hERG channels were elicited by applying a +40 mV prepulse for 2 s followed by a step to −120 mV for 2 s.

[5] = biological target: Kv1.5 (Homo sapiens, UniProt P22460); conditions: 100 μM AMSIN
Description: as §1

[6] = biological target: Kv2.1 (Homo sapiens, UniProt Q14721); conditions: 100 μM AMSIN
Description: as §1

[7] = biological target: Kv4.3 (Homo sapiens, UniProt Q9UK17); conditions: 100 μM AMSIN
Description: as §1

[8] = biological target: Nav1.5 (Homo sapiens, UniProt Q14524); conditions: 100 μM AMSIN
Description: as §1

[9] = biological target: hERG (Homo sapiens, UniProt Q12809); conditions: 100 μM AMSIN
Description: as §1

[10] = system: HL‐60 cells; assay: Peptide-induced MCP-1 release (ELISA); assay type: cell-based, human; conditions: 24 h
Description: A549 and HL‐60 cells were purchased from the Cell Resource Center of the Chinese Academy of Medical Sciences (Beijing, China). They were tested for mycoplasma contamination with the Mycoplasma Detection Kit (Solarbio, China) and only negative cultures were used in our experiments. The cells were cultured in complete Dulbecco’s Modified Eagle Medium (DMEM) supplemented with 10% fetal bovine serum (FBS), penicillin (100 units/ml), and streptomycin ([…]) at 37°C in 5% CO2. The culture medium was changed every 2 days. Cells were passaged every 4–5 days with 0.25% trypsin (Gibco, USA). For enzyme‐linked immunosorbent assay (ELISA) (Hara et al, [2008]), A549 or HL‐60 cells were seeded in six‐well plates at a density of 1 × 10^5 cells/well and were incubated at 37°C in 5% CO2 overnight. Medium was aspirated and replaced with fresh complete DMEM supplemented with 10% FBS or serum‐free medium, both containing different concentrations of polypeptides for 24 h. Then, the supernatants were harvested for quantification of the IL‐8 amount in A549 by the Human CXCL8/IL‐8 Quantikine ELISA Kit (R&D Systems Inc., Minneapolis, MN, USA) and the MCP‐1 amount in HL‐60 by the Human MCP‐1 ELISA Kit (Boster Biological Technology Co., Ltd, Wuhan, China) as per the manufactures’ instructions.

[11] = 37°C

Chain of Kv4.3 (Q9UK17 whole entry): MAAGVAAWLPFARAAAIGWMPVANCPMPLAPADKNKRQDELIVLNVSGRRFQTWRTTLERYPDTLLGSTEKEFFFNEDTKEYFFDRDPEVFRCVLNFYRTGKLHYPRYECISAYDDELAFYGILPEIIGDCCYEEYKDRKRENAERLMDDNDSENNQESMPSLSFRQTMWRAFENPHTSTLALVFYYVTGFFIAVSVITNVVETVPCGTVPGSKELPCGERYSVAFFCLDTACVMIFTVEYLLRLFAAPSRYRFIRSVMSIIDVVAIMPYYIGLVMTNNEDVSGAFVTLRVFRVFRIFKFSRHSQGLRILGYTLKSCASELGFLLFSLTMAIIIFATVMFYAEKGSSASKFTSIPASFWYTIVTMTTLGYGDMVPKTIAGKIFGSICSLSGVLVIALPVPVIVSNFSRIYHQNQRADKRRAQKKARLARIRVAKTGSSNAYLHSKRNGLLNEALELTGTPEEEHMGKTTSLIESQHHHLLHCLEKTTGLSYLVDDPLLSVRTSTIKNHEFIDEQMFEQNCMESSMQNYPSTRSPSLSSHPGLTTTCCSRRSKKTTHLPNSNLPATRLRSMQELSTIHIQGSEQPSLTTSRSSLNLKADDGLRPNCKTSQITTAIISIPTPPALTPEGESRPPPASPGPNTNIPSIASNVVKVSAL
Chain of hERG (Q12809 whole entry): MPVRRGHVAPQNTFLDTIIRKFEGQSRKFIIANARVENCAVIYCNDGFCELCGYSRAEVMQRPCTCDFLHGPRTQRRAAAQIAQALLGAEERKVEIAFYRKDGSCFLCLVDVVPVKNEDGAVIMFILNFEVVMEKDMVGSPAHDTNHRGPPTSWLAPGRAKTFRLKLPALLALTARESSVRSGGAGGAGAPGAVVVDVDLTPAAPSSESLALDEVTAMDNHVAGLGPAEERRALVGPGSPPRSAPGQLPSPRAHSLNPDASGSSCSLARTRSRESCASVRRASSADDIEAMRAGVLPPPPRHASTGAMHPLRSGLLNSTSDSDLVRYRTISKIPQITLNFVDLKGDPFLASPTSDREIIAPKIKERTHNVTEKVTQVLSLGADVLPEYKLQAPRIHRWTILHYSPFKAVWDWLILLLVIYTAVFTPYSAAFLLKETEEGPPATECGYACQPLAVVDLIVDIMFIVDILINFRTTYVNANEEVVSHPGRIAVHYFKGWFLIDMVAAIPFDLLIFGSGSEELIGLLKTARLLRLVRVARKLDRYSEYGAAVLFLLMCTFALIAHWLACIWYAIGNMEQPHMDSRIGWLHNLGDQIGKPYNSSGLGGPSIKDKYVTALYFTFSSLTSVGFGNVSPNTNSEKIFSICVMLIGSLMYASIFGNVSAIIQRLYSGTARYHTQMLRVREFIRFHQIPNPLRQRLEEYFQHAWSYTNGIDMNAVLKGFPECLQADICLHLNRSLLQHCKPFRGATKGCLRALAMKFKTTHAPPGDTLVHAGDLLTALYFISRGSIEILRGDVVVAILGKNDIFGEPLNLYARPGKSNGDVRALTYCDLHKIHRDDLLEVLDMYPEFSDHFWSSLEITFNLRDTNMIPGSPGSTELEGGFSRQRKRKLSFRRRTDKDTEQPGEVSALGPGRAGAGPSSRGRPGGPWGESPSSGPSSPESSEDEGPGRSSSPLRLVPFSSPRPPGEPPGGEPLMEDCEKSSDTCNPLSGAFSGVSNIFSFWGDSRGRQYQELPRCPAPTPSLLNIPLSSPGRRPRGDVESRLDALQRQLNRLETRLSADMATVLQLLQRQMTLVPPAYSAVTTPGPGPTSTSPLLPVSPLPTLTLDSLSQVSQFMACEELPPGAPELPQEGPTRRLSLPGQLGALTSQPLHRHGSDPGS
Chain of Nav1.5 (Q14524 whole entry): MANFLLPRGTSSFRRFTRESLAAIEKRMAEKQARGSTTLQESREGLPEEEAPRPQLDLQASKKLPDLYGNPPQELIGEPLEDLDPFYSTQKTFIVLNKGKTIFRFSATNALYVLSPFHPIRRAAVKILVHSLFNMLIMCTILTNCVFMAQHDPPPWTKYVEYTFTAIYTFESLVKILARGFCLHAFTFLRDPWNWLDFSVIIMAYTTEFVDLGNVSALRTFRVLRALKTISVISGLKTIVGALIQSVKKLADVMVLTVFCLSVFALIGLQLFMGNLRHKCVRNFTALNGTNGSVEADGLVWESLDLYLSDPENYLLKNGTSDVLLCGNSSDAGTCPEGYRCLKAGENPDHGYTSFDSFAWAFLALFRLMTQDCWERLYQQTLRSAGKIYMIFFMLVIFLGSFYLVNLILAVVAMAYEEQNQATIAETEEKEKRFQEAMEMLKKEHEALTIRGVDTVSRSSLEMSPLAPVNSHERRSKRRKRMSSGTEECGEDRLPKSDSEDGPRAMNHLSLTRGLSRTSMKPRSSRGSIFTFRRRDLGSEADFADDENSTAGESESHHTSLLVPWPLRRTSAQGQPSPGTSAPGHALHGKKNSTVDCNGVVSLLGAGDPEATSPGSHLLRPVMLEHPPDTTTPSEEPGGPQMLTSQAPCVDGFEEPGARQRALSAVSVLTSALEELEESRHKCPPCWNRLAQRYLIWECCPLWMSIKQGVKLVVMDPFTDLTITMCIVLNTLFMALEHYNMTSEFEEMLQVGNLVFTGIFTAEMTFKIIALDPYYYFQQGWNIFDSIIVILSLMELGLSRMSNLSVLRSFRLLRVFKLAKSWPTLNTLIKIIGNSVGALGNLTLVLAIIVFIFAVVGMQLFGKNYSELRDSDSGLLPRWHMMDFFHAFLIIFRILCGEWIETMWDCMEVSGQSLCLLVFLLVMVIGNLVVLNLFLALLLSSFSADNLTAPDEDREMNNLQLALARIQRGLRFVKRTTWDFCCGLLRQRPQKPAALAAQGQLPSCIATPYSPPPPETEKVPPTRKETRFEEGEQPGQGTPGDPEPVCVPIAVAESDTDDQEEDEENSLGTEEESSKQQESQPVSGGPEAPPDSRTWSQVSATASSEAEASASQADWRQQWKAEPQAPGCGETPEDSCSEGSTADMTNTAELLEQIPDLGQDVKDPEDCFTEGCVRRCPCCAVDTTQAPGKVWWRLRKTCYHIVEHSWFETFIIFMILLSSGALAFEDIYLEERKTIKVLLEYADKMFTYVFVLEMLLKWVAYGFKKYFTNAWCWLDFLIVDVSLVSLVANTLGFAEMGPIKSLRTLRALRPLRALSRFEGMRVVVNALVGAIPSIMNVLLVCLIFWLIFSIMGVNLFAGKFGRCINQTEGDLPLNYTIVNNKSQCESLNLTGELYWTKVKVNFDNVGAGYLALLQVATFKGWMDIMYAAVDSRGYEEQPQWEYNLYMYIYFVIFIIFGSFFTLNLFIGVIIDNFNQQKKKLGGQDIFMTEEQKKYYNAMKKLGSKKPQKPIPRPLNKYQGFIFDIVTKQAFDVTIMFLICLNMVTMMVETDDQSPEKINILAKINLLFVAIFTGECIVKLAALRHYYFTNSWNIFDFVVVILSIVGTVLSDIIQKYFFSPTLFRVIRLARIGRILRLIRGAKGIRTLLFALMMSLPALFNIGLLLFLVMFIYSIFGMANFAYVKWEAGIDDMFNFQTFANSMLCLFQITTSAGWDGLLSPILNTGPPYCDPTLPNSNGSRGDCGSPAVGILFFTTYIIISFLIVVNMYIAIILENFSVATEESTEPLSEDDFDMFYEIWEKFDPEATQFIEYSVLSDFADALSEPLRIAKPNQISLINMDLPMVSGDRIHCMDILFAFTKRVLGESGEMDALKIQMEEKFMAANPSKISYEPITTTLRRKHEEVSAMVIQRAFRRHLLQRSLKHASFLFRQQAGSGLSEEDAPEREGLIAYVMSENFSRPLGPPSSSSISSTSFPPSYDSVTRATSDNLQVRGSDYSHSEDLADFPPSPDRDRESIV
Chain of Kv1.4 (P22459 whole entry): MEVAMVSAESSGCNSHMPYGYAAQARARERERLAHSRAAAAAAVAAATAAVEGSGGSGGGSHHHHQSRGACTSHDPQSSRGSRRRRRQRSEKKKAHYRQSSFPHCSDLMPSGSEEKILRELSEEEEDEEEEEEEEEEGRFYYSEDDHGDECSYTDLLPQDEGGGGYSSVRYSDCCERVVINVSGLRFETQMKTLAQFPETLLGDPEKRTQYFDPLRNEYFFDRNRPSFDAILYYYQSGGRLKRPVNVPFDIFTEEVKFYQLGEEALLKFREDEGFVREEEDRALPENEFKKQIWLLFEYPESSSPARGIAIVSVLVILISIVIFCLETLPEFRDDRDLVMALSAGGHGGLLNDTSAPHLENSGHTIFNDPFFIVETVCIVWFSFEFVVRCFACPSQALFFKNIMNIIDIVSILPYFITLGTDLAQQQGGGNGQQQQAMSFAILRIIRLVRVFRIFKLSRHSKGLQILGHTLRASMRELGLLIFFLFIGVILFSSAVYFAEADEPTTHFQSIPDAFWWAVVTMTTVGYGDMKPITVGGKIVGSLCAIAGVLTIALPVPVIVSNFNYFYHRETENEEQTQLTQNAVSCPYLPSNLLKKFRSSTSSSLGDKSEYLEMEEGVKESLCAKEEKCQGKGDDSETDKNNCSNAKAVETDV
Chain of Kv1.5 (P22460 whole entry): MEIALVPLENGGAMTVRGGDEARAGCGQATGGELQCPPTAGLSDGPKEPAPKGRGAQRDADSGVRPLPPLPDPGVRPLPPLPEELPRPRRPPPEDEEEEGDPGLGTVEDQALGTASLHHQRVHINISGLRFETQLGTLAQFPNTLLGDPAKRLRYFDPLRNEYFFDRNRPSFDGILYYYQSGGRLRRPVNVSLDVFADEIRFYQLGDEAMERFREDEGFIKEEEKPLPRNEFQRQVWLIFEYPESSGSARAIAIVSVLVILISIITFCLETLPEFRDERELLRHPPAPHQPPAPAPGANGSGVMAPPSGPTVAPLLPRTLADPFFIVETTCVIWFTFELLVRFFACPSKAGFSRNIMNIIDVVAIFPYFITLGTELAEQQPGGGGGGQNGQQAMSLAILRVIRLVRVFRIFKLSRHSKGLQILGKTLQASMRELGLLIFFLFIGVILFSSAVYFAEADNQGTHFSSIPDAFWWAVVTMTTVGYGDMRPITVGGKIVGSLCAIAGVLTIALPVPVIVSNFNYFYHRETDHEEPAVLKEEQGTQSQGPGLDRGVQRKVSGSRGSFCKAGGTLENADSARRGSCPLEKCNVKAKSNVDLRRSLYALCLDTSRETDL

Compound: CC[C@H](C)[C@@H]1NC(=O)[C@H](CCCCN)NC(=O)CNC(=O)[C@H](CCCNC(=N)N)NC(=O)[C@@H]2CSSC[C@H](NC(=O)CNC(=O)[C@H](Cc3ccccc3)NC(=O)CN)C(=O)N3CCC[C@H]3C(=O)N[C@@H](Cc3c[nH]c4ccccc34)C(=O)N[C@@H](CC(N)=O)C(=O)N[C@@H](C)C(=O)N[C@@H](Cc3ccc(O)cc3)C(=O)N[C@@H](CCC(=O)O)C(=O)N[C@H]3CSSC[C@H](NC(=O)[C@H]([C@@H](C)O)NC(=O)[C@H](CCC(N)=O)NC(=O)[C@H](CCCNC(=N)N)NC1=O)C(=O)N[C@@H](Cc1c[nH]cn1)C(=O)N[C@H](C(=O)N[C@@H](Cc1ccc(O)cc1)C(=O)O)CSSC[C@H](NC(=O)[C@H](Cc1c[nH]cn1)NC(=O)[C@H](CCCNC(=N)N)NC(=O)[C@H](CC(=O)O)NC3=O)C(=O)N[C@@H](C(C)C)C(=O)N[C@@H](CO)C(=O)N[C@@H](CCCCN)C(=O)NCC(=O)N[C@@H](Cc1ccc(O)cc1)C(=O)N[C@@H]([C@@H](C)O)C(=O)NCC(=O)NCC(=O)N[C@@H](CC(N)=O)C(=O)N2 [AMSIN] (H-GFGCPWNAYECDRHCVSKGYTGGNCRGKIRQTCHCY-OH; disulfide 4-25, 11-33, 15-35; N-terminus and C-terminus assumed)
- Transcriptional profile compared with vancomycin [1]: partly overlapped
- Complex with UMP by CD absorption signatures [2]: a complex was formed
- Residual antibacterial activity [3]: full antibacterial activity
- Effect on channel current [4]: no any effect
- Effect on channel current [5]: no any effect
- Effect on channel current [6]: no any effect
- Effect on channel current [7]: no any effect
- Effect on channel current [8]: no any effect
- Effect on channel current [9]: no any effect
- MCP-1 ([10]; FBS-containing medium, 25 μg/mL, replicate 1): 380 pg/mL
- MCP-1 ([10]; FBS-containing medium, 25 μg/mL, replicate 2): 485 pg/mL
- MCP-1 ([10]; FBS-containing medium, 25 μg/mL, replicate 3): 359 pg/mL
- MCP-1 ([10]; FBS-containing medium, 50 μg/mL, replicate 1): 453 pg/mL
- MCP-1 ([10]; FBS-containing medium, 50 μg/mL, replicate 2): 523 pg/mL
- MCP-1 ([10]; FBS-containing medium, 50 μg/mL, replicate 3): 432 pg/mL
- MCP-1 ([10]; FBS-containing medium, 100 μg/mL, replicate 1): 419 pg/mL
- MCP-1 ([10]; FBS-containing medium, 100 μg/mL, replicate 2): 423 pg/mL
- MCP-1 ([10]; FBS-containing medium, 100 μg/mL, replicate 3): 398 pg/mL
- MCP-1 ([10]; Serum-Free medium, 25 μg/mL, replicate 1): 393 pg/mL
- MCP-1 ([10]; Serum-Free medium, 25 μg/mL, replicate 2): 431 pg/mL
- MCP-1 ([10]; Serum-Free medium, 25 μg/mL, replicate 3): 372 pg/mL
- MCP-1 ([10]; Serum-Free medium, 50 μg/mL, replicate 1): 447 pg/mL
- MCP-1 ([10]; Serum-Free medium, 50 μg/mL, replicate 2): 450 pg/mL
- MCP-1 ([10]; Serum-Free medium, 50 μg/mL, replicate 3): 426 pg/mL
- MCP-1 ([10]; Serum-Free medium, 100 μg/mL, replicate 1): 418 pg/mL
- MCP-1 ([10]; Serum-Free medium, 100 μg/mL, replicate 2): 427 pg/mL
- MCP-1 ([10]; Serum-Free medium, 100 μg/mL, replicate 3): 397 pg/mL
- Residual antibacterial activity ([11]; 24 h in fresh normal mouse serum without dilution): full antibacterial activity
- Activity in serum compared with in H2O ([11]; undiluted mouse serum, 48‐h study period): slight decrease
